{"source": "ChEMBL document CHEMBL5316267", "about": "“Subnanomolar Affinity and Selective Antagonism at α7 Nicotinic Receptor by Combined Modifications of 2-Triethylammonium Ethyl Ether of 4-Stilbenol (MG624)” (J Med Chem, 2023)", "key": {"[1]": {"molecular_target": "Neuronal acetylcholine receptor subunit alpha-7 (Homo sapiens) (UniProt P36544)", "sequence (P36544 whole entry)": "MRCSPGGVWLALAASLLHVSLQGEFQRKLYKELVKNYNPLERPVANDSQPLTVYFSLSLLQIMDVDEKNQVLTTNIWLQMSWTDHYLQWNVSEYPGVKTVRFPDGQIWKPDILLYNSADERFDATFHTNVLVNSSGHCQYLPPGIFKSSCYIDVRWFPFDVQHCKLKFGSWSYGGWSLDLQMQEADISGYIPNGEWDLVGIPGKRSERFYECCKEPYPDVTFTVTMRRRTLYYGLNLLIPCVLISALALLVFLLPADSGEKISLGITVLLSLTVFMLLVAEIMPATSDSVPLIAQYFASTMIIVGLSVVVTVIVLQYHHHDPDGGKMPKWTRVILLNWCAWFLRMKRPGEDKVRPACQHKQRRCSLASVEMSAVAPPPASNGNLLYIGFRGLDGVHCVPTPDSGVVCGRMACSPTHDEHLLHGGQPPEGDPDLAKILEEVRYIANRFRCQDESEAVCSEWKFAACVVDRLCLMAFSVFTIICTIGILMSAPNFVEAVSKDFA", "assay": "Antagonist activity at human alpha7 nAChR expressed in acetylcholine-induced Xenopus laevis oocytes treated for 1 sec followed by acetylcholine stimulation 1 min post-compound treatment at holding potential of -70 mV by two electrode voltage-clamp assay", "type": "cell-based", "settings": "Oocyte, filed as antagonist, time 61.0 sec"}, "[2]": {"molecular_target": "Neuronal acetylcholine receptor; alpha4/beta2 (Homo sapiens, UniProt P17787+P43681)", "sequence (P17787 whole entry)": "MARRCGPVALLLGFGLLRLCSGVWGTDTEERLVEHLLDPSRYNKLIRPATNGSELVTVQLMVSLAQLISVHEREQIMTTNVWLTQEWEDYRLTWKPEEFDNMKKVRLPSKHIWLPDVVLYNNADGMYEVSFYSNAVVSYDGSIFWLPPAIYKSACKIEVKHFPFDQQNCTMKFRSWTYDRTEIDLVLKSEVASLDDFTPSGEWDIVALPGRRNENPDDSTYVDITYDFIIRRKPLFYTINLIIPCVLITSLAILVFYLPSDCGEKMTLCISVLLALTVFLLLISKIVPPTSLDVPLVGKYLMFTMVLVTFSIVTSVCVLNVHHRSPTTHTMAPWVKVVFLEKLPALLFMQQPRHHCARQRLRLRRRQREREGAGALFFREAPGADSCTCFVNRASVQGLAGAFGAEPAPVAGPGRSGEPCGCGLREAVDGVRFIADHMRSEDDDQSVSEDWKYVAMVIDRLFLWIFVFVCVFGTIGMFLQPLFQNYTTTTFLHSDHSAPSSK", "sequence (P43681 whole entry)": "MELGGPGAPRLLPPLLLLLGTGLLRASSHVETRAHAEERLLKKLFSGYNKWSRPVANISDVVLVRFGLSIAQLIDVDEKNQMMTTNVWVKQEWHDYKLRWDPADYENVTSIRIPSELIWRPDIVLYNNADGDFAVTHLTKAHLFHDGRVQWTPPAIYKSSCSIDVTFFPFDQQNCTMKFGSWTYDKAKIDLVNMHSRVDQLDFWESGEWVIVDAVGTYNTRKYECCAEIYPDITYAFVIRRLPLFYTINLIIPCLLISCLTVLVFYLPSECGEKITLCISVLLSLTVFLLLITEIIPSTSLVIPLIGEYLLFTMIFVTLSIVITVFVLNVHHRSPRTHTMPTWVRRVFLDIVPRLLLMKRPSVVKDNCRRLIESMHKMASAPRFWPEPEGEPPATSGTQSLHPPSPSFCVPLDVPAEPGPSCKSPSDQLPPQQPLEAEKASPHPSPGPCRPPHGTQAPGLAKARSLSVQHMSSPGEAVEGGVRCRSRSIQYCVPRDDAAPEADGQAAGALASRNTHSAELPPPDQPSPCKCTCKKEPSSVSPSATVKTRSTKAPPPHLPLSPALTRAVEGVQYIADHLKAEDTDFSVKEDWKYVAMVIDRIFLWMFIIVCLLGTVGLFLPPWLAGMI", "assay": "Displacement of [3H]-Epibatidine from alpha4beta2 nAChR (unknown origin) expressed in HEK293 cell membrane assessed as inhibition constant by beta counter method", "type": "cell membranes"}, "[3]": {"molecular_target": "Neuronal acetylcholine receptor; alpha3/beta4 (Homo sapiens, UniProt P30926+P32297)", "sequence (P30926 whole entry)": "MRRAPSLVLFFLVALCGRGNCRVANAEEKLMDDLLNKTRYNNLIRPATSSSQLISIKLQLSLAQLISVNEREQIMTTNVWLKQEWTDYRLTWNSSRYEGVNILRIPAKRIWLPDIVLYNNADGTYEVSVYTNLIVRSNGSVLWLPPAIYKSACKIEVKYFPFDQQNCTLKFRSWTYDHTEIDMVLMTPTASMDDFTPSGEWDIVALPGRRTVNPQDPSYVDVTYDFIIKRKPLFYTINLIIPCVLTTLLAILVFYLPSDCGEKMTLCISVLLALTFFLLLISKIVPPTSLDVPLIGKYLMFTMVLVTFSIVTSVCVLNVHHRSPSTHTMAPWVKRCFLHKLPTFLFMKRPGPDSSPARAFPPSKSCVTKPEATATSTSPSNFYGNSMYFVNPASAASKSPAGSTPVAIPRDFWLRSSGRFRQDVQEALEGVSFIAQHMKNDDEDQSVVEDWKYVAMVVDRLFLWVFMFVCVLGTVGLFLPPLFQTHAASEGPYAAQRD", "sequence (P32297 whole entry)": "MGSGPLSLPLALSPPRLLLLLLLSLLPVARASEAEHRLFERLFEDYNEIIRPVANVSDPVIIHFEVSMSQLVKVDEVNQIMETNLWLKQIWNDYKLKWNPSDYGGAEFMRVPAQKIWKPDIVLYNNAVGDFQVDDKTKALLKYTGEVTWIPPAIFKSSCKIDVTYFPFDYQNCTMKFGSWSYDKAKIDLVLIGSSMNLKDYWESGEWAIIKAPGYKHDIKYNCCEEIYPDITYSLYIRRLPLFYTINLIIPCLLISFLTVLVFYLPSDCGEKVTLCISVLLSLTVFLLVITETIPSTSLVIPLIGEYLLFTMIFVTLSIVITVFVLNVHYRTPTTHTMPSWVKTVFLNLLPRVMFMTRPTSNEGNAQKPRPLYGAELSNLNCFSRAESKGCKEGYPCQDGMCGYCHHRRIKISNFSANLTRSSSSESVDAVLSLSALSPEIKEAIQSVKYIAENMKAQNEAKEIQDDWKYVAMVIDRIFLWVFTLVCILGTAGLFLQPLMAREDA", "assay": "Displacement of [3H]-Epibatidine from alpha3beta4 nAChR (unknown origin) expressed in SH-EP1 cell membrane assessed as inhibition constant by beta counter method", "type": "cell membranes"}, "[4]": {"molecular_target": "Neuronal acetylcholine receptor; alpha9/alpha10 (Homo sapiens) (UniProt Q9UGM1+Q9GZZ6)", "assay": "Partial agonist activity at human alpha9alpha10 nAChR expressed in acetylcholine-induced Xenopus laevis oocytes assessed as residual activity treated for 1 sec followed by acetylcholine stimulation for 1 min post-compound treatment at holding potential of -70 mV by two electrode voltage-clamp assay", "type": "cell-based", "settings": "Oocyte, time 61.0 sec"}}, "note": "Activity calls are given as the source filed them. No cut-off for these calls is given here.", "data": [{"smiles": "C[N+]1(C)CC[C@@H](Oc2ccc(-c3ccc4[nH]ccc4c3)cc2)C1", "values": [{"measurement": "Activity", "setting": "[1]", "result": "Active"}]}, {"smiles": "CC[N+](CC)(CC)CCOc1ccc(OCc2ccccc2)cc1", "values": [{"measurement": "Ki", "setting": "[2]", "result": 7.5, "unit": "µM"}]}, {"smiles": "CC[N+](CC)(CC)CCOc1ccc(-c2cccc3ccccc23)cc1", "values": [{"measurement": "Ki", "setting": "[3]", "result": 0.097, "unit": "µM"}]}, {"smiles": "CC[N+](CC)(CC)CCOc1ccc(CCc2ccccc2)cc1", "values": [{"measurement": "Activity", "setting": "[4]", "result": "inactive"}]}]}
